101 compounds from ChEMBL document CHEMBL3507680, “University of Dundee, Gates Library screen for HepG2 cell viability” can be followed below.

Molecules are shown by their SMILES.

This data set in a line: Human HepG2 cell viability assay in 384 well format. Set-up: dose 125 nL, time 70.5 hour; cytotoxicity at 70.5 h: concentration not given beside the values. The note with it: HepG2 cells, read-out: Inhibition. The data set is classed as toxicity, cell-based.

For `CC(NC(=O)c1cccc[n+]1[O-])c1ccc2c(c1)CCC(=O)N2` (stereo unspecified), the cytotoxicity at 70.5 h was -3.74%.

With `CCOC1CCN(C(=O)c2ccc(-n3ncc(C#N)c3N)cc2)CC1`, the cytotoxicity at 70.5 h was -0.409%.

Take `Cc1csc(C2CCCCN2C(=O)COCc2nc(C)no2)n1` (stereo unspecified): the cytotoxicity at 70.5 h was -4.26%.

On to `CCN(CC)C(=O)c1cc(Br)cc(S(=O)(=O)N2CCOCC2)c1F`, for which the cytotoxicity at 70.5 h is -2.06%.

Consider `Cc1ccc(CN(C(=O)C(C)NC(N)=O)C2CC2)cc1C` (stereo unspecified), for which the cytotoxicity at 70.5 h came to 25.3%.

On to `CC(C)NC(=O)c1cc(Br)cc(S(=O)(=O)N2CCOCC2)c1F`, for which the cytotoxicity at 70.5 h was -0.805%.

For `CCCC1SCCN1C(=O)c1ccc(-n2ncc(C#N)c2N)cc1` (stereo unspecified), the cytotoxicity at 70.5 h was -3.53%.

On to `CC(=O)NC(C)C(=O)N(Cc1ccc(C)c(C)c1)C1CC1` (stereo unspecified), for which the cytotoxicity at 70.5 h was found to be 0.332%.

On to `Cn1cc(NC(=O)c2cccc(C(F)(F)F)c2)c(=O)n(C)c1=O`, for which the cytotoxicity at 70.5 h is -2.92%.

Take `Cc1cc(C(=O)O)ccc1NS(=O)(=O)c1c(C)nn(C(C)C)c1C`: the cytotoxicity at 70.5 h is -5.01%.

On to `Cc1ccc(CNc2ccn(CCc3ccncc3)n2)s1`, for which the cytotoxicity at 70.5 h worked out at 2.73%.

In the case of `Cc1noc(COCC(=O)N2CCCCC2c2nccs2)n1` (stereo unspecified), the cytotoxicity at 70.5 h is -8.06%.

For the compound `Cn1cc(S(=O)(=O)N2CCCC2Cn2ccnc2)cc1C(N)=O` (stereo unspecified), the cytotoxicity at 70.5 h was -5.85%.

Turning to `Cc1nc(C)c(CCNC(Cc2ccncc2)C(F)(F)F)s1` (stereo unspecified), the cytotoxicity at 70.5 h is 2.53%.

Consider `Cc1noc(COCC(=O)N2CCCC(c3nccs3)C2)n1` (stereo unspecified), for which the cytotoxicity at 70.5 h was -6.88%.

Take `Cc1cc(N2CCOCC2)ccc1NC(C)c1nc(C(C)(C)C)no1` (stereo unspecified): the cytotoxicity at 70.5 h was -6.63%.

Regarding `CC(C)C(NC(=O)Nc1ccc(F)cc1)C(=O)N(C)C` (stereo unspecified), the cytotoxicity at 70.5 h was 3.02%.

Turning to `Cc1ccc(C)c(OC2CCN(C(=O)NCC(=O)N3CCCC3)CC2)c1`, the cytotoxicity at 70.5 h is -5.3%.

As for `CCN1CCN(c2ccc(NC(C)c3nc(C(C)C)no3)c(C)c2)CC1` (stereo unspecified), the cytotoxicity at 70.5 h was -12.5%.

Turning to `CC(C)(C)n1nc(C(=O)NC2CCN(CC(N)=O)CC2)cc1C1CC1`, the cytotoxicity at 70.5 h was -11.7%.

Turning to `Cc1cc(NC(=O)C(C)Nc2cccc(COCc3ccco3)c2)on1` (stereo unspecified), the cytotoxicity at 70.5 h is -20.2%.

Regarding `N#Cc1ccc(NCc2cccc(OCC3CCCO3)c2)nc1` (stereo unspecified), the cytotoxicity at 70.5 h is -8.7%.

With `Cc1cc(N2CCCC2c2nnc3n2CCCCC3)nc(N)n1` (stereo unspecified), the cytotoxicity at 70.5 h amounted to 22.8%.

For the compound `CCc1noc(CN(CCC2CCCCC2)CC(N)=O)n1`, the cytotoxicity at 70.5 h is -14.6%.

On to `C=C(C)CN(CC)C(=O)c1cc(F)ccc1N1CCN(C)CC1`, for which the cytotoxicity at 70.5 h is -12.2%.

On to `Cc1ccc(C(=O)NCC(c2cnn(C)c2)N(C)C)c(O)c1` (stereo unspecified), for which the cytotoxicity at 70.5 h stood at 25.6%.

With `Cc1c(C2CC2)n[nH]c1NC(=O)C1CCCN(C(=O)NCC(C)C)C1` (stereo unspecified), the cytotoxicity at 70.5 h was -4.52%.

Take `CCc1cc(CNC(=O)C2CCCN(C(=O)NCC(C)C)C2)[nH]n1` (stereo unspecified): the cytotoxicity at 70.5 h was -11.9%.

Turning to `Cc1ccc(-n2cc(S(=O)(=O)Nc3cccc(C(=O)O)c3C)cn2)cc1`, the cytotoxicity at 70.5 h is -12.2%.

With `Cc1n[nH]c(C)c1NC(=O)C1CCCN(C(=O)NCC(C)C)C1` (stereo unspecified), the cytotoxicity at 70.5 h was -5.82%.

Consider `CC(C)N(CC(N)=O)C(=O)c1cc(F)ccc1N1CCN(C)CC1`, for which the cytotoxicity at 70.5 h is -5.36%.

In the case of `CCC(=O)N(CCC(=O)O)Cc1ccc(F)c(F)c1`, the cytotoxicity at 70.5 h is -7.91%.

Turning to `CC(=O)c1ccc(NC(=O)C(NC(=O)Nc2ccccc2)C(C)C)cc1` (stereo unspecified), the cytotoxicity at 70.5 h was -10.8%.

With `Cc1ccc(F)c2c1CCCN2C(=O)c1cn(CC(=O)N(C)C)nn1`, the cytotoxicity at 70.5 h is -7.17%.

Regarding `COCCN(CC(C)C)C(=O)c1cccc(Nc2cnccn2)c1`, the cytotoxicity at 70.5 h is -13.9%.

Turning to `COCCCC(=O)N(CCC(=O)O)Cc1ccc(F)c(F)c1`, the cytotoxicity at 70.5 h was -12.3%.

As to `COc1ccccc1NCC(=O)NCc1cc[nH]n1`, the cytotoxicity at 70.5 h was 26.9%.

Turning to `COc1ncnc(N)c1CNCC(C)Oc1ccccc1Cl` (stereo unspecified), the cytotoxicity at 70.5 h is -3.69%.

Turning to `COc1ccc(CNC(=O)CNc2ccccc2OC)cc1`, the cytotoxicity at 70.5 h worked out at 2.91%.

For the compound `CCn1cnnc1CNC(=O)C1COc2ccc(Cl)cc2C1` (stereo unspecified), the cytotoxicity at 70.5 h was -3.41%.

In the case of `CCCC(C(=O)NC1CCN(S(C)(=O)=O)CC1)c1ccccc1` (stereo unspecified), the cytotoxicity at 70.5 h was -4.97%.

On to `O=C(NCC(=O)N1CC2(CCCC2)c2c(F)cccc21)C1CC1`, for which the cytotoxicity at 70.5 h was determined as 0.771%.

In the case of `CCCc1cc(N2CCCC2Cn2nc(C)cc2C)n2ncnc2n1` (stereo unspecified), the cytotoxicity at 70.5 h is -5.55%.

Consider `CCCc1cc(N2CCCCC2Cn2cc(C)cn2)n2ncnc2n1` (stereo unspecified), for which the cytotoxicity at 70.5 h was -6.83%.

Take `COc1cccc(F)c1C(C)NC(=O)NCCc1ccc(C)nc1` (stereo unspecified): the cytotoxicity at 70.5 h is 29.6%.

On to `COC(=O)c1ccc(N2CCC(N(C)c3ccccc3)CC2)nn1`, for which the cytotoxicity at 70.5 h was 3.35%.

Consider `CCOc1cccc(COC(=O)c2ccc(Cl)cn2)n1`, for which the cytotoxicity at 70.5 h is -8.76%.

As for `CCOc1cccc(COC(=O)c2cc(Cl)ccn2)n1`, the cytotoxicity at 70.5 h turned out to be 25.2%.

With `CCOc1cccc(COC(=O)c2scnc2C)n1`, the cytotoxicity at 70.5 h was 5.38%.

Take `O=S(=O)(c1ccc(Cl)cc1)N1CCC(OCc2ccccn2)C1` (stereo unspecified): the cytotoxicity at 70.5 h was 2.04%.

Regarding `N#Cc1cccc(S(=O)(=O)CCN2CCOC2=O)c1`, the cytotoxicity at 70.5 h is -8.07%.

For the compound `CC(C)Cc1nc(CNCc2cccc(N3CCCC3=O)c2)no1`, the cytotoxicity at 70.5 h is -20.4%.

On to `CN(Cc1ccncc1)C(CO)c1cccc(F)c1` (stereo unspecified), for which the cytotoxicity at 70.5 h was -27.2%.

As to `CC(C)c1nsc(N2CCC(OCCN3CCOCC3)CC2)n1`, the cytotoxicity at 70.5 h is -22.2%.

For the compound `CC(NC1CCN(CC(=O)N(C)C)CC1)c1cnn(C(C)C)c1` (stereo unspecified), the cytotoxicity at 70.5 h was -14.3%.

Consider `CC(NC1CCN(CCc2ccncc2)CC1)c1cnn(C(C)C)c1` (stereo unspecified), for which the cytotoxicity at 70.5 h was -18%.

For `CN(Cc1ccccn1)C(CO)c1cccc(Br)c1` (stereo unspecified), the cytotoxicity at 70.5 h was -1.08%.

`CC(Cn1cccn1)NCC(=O)N(C)Cc1ccsc1` (stereo unspecified): the cytotoxicity at 70.5 h was determined as 35.4%.

As to `CC(C)(C)c1ncc(CNc2ccccc2SCCC(N)=O)s1`, the cytotoxicity at 70.5 h turned out to be 3.11%.

`Cc1oc(-c2ccccc2)nc1CN1CCC(c2ccnn2C)CC1`: the cytotoxicity at 70.5 h is -78.8%.

`Cc1ccc(C(NCC(=O)N2CCNC(=O)C2)c2ccccc2)cc1` (stereo unspecified): the cytotoxicity at 70.5 h is -104%.

As to `Cc1cc(N2CCc3cnc(C)nc3C2)n2nc(C(F)(F)F)nc2n1`, the cytotoxicity at 70.5 h was -108%.

`Cc1noc(C)c1CS(=O)(=O)C(C)C(=O)N(C)c1ccccc1` (stereo unspecified): the cytotoxicity at 70.5 h was -111%.

On to `O=C(CN(CC(O)c1ccc(F)cc1)C1CC1)NC(C1CC1)C1CC1` (stereo unspecified), for which the cytotoxicity at 70.5 h is -90.6%.

On to `Cc1ccc(N2CCC(C(=O)NC3CCc4nccn4C3)CC2)nc1` (stereo unspecified), for which the cytotoxicity at 70.5 h is -90.5%.

As for `CCc1nn(C)c2[nH]nc(NC(=O)c3cccnc3OC)c12`, the cytotoxicity at 70.5 h is -112%.

With `COc1ccc(C(N)=O)cc1NCc1ncc(-c2cccs2)o1`, the cytotoxicity at 70.5 h is -14%.

For `NC(=O)N1CCC(C(=O)NC2CCc3nccn3C2)CC1` (stereo unspecified), the cytotoxicity at 70.5 h is -110%.

Regarding `COc1ccc(C(N)=O)cc1NCc1nc(-c2cccs2)oc1C`, the cytotoxicity at 70.5 h is -102%.

Consider `COc1ccc(NC(=O)c2ccccc2NCc2ncnn2C)cc1`, for which the cytotoxicity at 70.5 h is -19.9%.

Take `CNC(=O)NC(C)c1c(F)cccc1Cl` (stereo unspecified): the cytotoxicity at 70.5 h is -107%.

On to `Cc1ccc(CNc2ccccc2SCCC(N)=O)s1`, for which the cytotoxicity at 70.5 h was -99.2%.

With `CC(C)n1cnnc1C1CCCN(S(=O)(=O)CCCF)C1` (stereo unspecified), the cytotoxicity at 70.5 h is -93.6%.

As for `Cc1cc(NC(=O)N2CCCC2C(=O)NC2CC2)c2ncccc2c1` (stereo unspecified), the cytotoxicity at 70.5 h is -98%.

Turning to `Cc1cc(NC(=O)N2CCCC2C(C)(C)O)c2ncccc2c1` (stereo unspecified), the cytotoxicity at 70.5 h is -75.7%.

Turning to `CCOc1ccc(NC(C)c2nnnn2-c2ccccc2)cc1CO` (stereo unspecified), the cytotoxicity at 70.5 h is -66.6%.

Turning to `COCC(O)CN(C)C(=O)NCc1ccc(-c2ccn[nH]2)cc1` (stereo unspecified), the cytotoxicity at 70.5 h was -85.9%.

For the compound `CS(=O)(=O)CCN(CCCO)C1CCc2ccccc21` (stereo unspecified), the cytotoxicity at 70.5 h is -98.4%.

`CCS(=O)(=O)NCCN(CCO)C1CCc2ccccc21` (stereo unspecified): the cytotoxicity at 70.5 h is -58.4%.

As to `O=C1CN(C(=O)CNC(CC(F)(F)F)c2ccc(F)cc2)CCN1` (stereo unspecified), the cytotoxicity at 70.5 h was -55.7%.

Take `COCCC(=O)Nc1ccnn1-c1ccccc1`: the cytotoxicity at 70.5 h was 1.36%.

As to `CC(=O)NCCc1ccc(S(=O)(=O)Nc2ccc(C)c(F)c2)s1`, the cytotoxicity at 70.5 h was -5.64%.

In the case of `CC(C)c1ncc(Cl)c(C(=O)N2CCN(C3CCCC3)CC2)n1`, the cytotoxicity at 70.5 h is -3.22%.

Consider `CC1(c2ccc(Br)cc2)CC(=O)N(CCC#N)C1=O` (stereo unspecified), for which the cytotoxicity at 70.5 h is 32.5%.

As to `O=C(Nc1ccccc1N1CCOC1=O)N1CCc2sccc2C1`, the cytotoxicity at 70.5 h is -8.21%.

As for `OCCN1CCN(CC(O)c2ccc(C(F)(F)F)cc2)CC1` (stereo unspecified), the cytotoxicity at 70.5 h is 33.3%.

Consider `COc1cc(CSc2nnc(N)n2C2CC2)ccc1SC`, for which the cytotoxicity at 70.5 h was -5.1%.

As to `CC1(c2ccc(Br)cc2)CC(=O)N(CC(N)=O)C1=O` (stereo unspecified), the cytotoxicity at 70.5 h stood at 32.3%.

`CCC(NC(=O)CNC(=O)OC)c1cc(F)ccc1F` (stereo unspecified): the cytotoxicity at 70.5 h is -2.42%.

With `COCCNC(=O)Cn1cc(NC(=O)c2cccc(Cl)c2Cl)cn1`, the cytotoxicity at 70.5 h is -1.6%.

Turning to `COCC(=O)Nc1ccnn1-c1ccc(Cl)cc1`, the cytotoxicity at 70.5 h amounted to 3.64%.

With `Cc1cc(C)cc(CNc2ccc(C(=O)NC(C)CO)cc2)c1` (stereo unspecified), the cytotoxicity at 70.5 h was -1.12%.

On to `CSCc1cc(C(=O)NC2(C#N)CC2)ccc1F`, for which the cytotoxicity at 70.5 h is -0.691%.

Consider `CCc1nc(C(=O)N2CC(C(C)C)Nc3ccccc32)c[nH]1` (stereo unspecified), for which the cytotoxicity at 70.5 h was -7.98%.

As to `CCc1nc(C(=O)N2CC(C)CN(C)c3ccccc32)c[nH]1` (stereo unspecified), the cytotoxicity at 70.5 h was -2.27%.

As to `Cc1nc(CNC(=O)Nc2cc(F)ccc2OC(F)F)no1`, the cytotoxicity at 70.5 h is -3.38%.

Take `CC1CN(C)c2ccccc2N(C(=O)c2c[nH]c(C(C)C)n2)C1` (stereo unspecified): the cytotoxicity at 70.5 h is 31.3%.

Regarding `Cc1ncccc1C(=O)Nc1cccc(OCC(F)F)n1`, the cytotoxicity at 70.5 h was -8.26%.

In the case of `CC(=O)N1CCC[C@H]1C(=O)NCCCN(C(C)C)S(C)(=O)=O`, the cytotoxicity at 70.5 h was -6.32%.

`CC(C)N(CCCNC(=O)C1CC(=O)N(C)C1)S(C)(=O)=O` (stereo unspecified): the cytotoxicity at 70.5 h is 33.7%.

On to `CN(Cc1nnn(CC2CC2)n1)C(=O)c1ccccc1`, for which the cytotoxicity at 70.5 h worked out at 32.1%.
